System: leukemia L-1210
Experiment: Antitumour activity in mice inoculated intraperitoneally with leukemia L-1210 (survival, T/C)
Type: in vivo, CDF-1 male mice
Settings: Mus musculus, L1210, ip, directly after injection of L-1210, after 2 days and after 6 days; for response vs control in vivo at 100 mg/kg: 100 mg/kg i.p.; for response vs control in vivo at 200 mg/kg: 200 mg/kg i.p.; for response vs control in vivo at 400 mg/kg: 400 mg/kg i.p.
Method: The antitumour activity for mice of the test material was evaluated by means of survival rate comparison, T/C (%), that is, 100 times the mean survival period of the groups injected with the test material divided by the mean survival period of the comparison groups which were not injected with the test material.
Further, for comparison, the following materials were also subjected to the same biological test: […]

Structure (SMILES): CCCCCCCCCCCCCCCCCCCCCC(=O)Nc1ccn([C@@H]2O[C@H](COP(=O)(O)O)[C@@H](O)[C@@H]2O)c(=O)n1 [N^4 -Behenoyl-5'-PNa]
- response vs control in vivo at 100 mg/kg: 316%
- response vs control in vivo at 200 mg/kg: 280%
- response vs control in vivo at 400 mg/kg: 270%

Structure (SMILES): CCC(=O)Nc1ccn([C@@H]2O[C@H](CO)[C@@H](O)[C@@H]2O)c(=O)n1 [N^4 -Propionyl-Ara-C]
- response vs control in vivo at 100 mg/kg: 131%
- response vs control in vivo at 200 mg/kg: 131%
- response vs control in vivo at 400 mg/kg: 135%

Structure (SMILES): CCCCCCCCCCCCCCCCCCCCCC(=O)Nc1ccn([C@@H]2O[C@H](CO)[C@@H](O)[C@@H]2O)c(=O)n1 [N^4 -Behenoyl-Ara-C]
- response vs control in vivo at 100 mg/kg: 313%
- response vs control in vivo at 200 mg/kg: 260%
- response vs control in vivo at 400 mg/kg: 256%

Structure (SMILES): CCCCCCCCCCCCCC(=O)Nc1ccn([C@@H]2O[C@H](COP(=O)(O)O)[C@@H](O)[C@@H]2O)c(=O)n1 [N^4 -Myristoyl-5'-PNa, N^4 -Myristoyl-1-β-D-arabinofuranosylcytosine-5'-phosphate monosodium]
- response vs control in vivo at 100 mg/kg: > 219%
- response vs control in vivo at 200 mg/kg: > 261%
- response vs control in vivo at 400 mg/kg: 93%

Structure (SMILES): CCCCCCCCCCCCCCCCCCC(=O)Nc1ccn([C@@H]2O[C@H](COP(=O)(O)O)[C@@H](O)[C@@H]2O)c(=O)n1 [N^4 -Nonadecanoyl-5'-PNa, N^4-nonadecanoyl-1-β-D-arabinofuranosylcytosine-5'-phosphate monosodium]
- response vs control in vivo at 100 mg/kg: 385%
- response vs control in vivo at 200 mg/kg: 232%
- response vs control in vivo at 400 mg/kg: 102%

Structure (SMILES): CCCCCCCCCCCCCCCCCCCC(=O)Nc1ccn([C@@H]2O[C@H](COP(=O)(O)O)[C@@H](O)[C@@H]2O)c(=O)n1 [N^4 -Arachidoyl-5'-PNa, N^4-arachidoyl-1-β-D-arabinofuranosylcytosine-5'-phosphate monosodium]
- response vs control in vivo at 100 mg/kg: 320%
- response vs control in vivo at 200 mg/kg: 130%
- response vs control in vivo at 400 mg/kg: 106%

Structure (SMILES): CCCCC(=O)Nc1ccn([C@@H]2O[C@H](COP(=O)(O)O)[C@@H](O)[C@@H]2O)c(=O)n1 [N^4 -Valeryl-5'-PNa]
- response vs control in vivo at 100 mg/kg: 101%
- response vs control in vivo at 200 mg/kg: 99%
- response vs control in vivo at 400 mg/kg: 101%

Structure (SMILES): CCCCCCCC(=O)Nc1ccn([C@@H]2O[C@H](CO)[C@@H](O)[C@@H]2O)c(=O)n1 [N^4 -Caprylyl-Ara-C]
- response vs control in vivo at 100 mg/kg: 123%
- response vs control in vivo at 200 mg/kg: 127%
- response vs control in vivo at 400 mg/kg: 163%

Structure (SMILES): CCCCCC(=O)Nc1ccn([C@@H]2O[C@H](COP(=O)(O)O)[C@@H](O)[C@@H]2O)c(=O)n1 [N^4 -Caproyl-5'-PNa]
- response vs control in vivo at 100 mg/kg: 103%
- response vs control in vivo at 200 mg/kg: 105%
- response vs control in vivo at 400 mg/kg: 101%

Structure (SMILES): CCCCCCCCCCCCCCCCCCCC(=O)Nc1ccn([C@@H]2O[C@H](CO)[C@@H](O)[C@@H]2O)c(=O)n1 [N^4 -Arachidoyl-Ara-C]
- response vs control in vivo at 100 mg/kg: 313%
- response vs control in vivo at 200 mg/kg: 128%
- response vs control in vivo at 400 mg/kg: 105%

Structure (SMILES): CCCCC/C=C\C/C=C\C/C=C\C/C=C\CCCC(=O)Nc1ccn([C@@H]2O[C@H](COP(=O)(O)O)[C@@H](O)[C@@H]2O)c(=O)n1 [N^4 -Arachidonoyl-5'-PNa, N^4-arachidonoyl-1-β-D-arabinofuranosylcytosine-5'-phosphate monosodium]
- response vs control in vivo at 100 mg/kg: 274%
- response vs control in vivo at 200 mg/kg: 148%
- response vs control in vivo at 400 mg/kg: 115%

Structure (SMILES): CCCC(=O)Nc1ccn([C@@H]2O[C@H](COP(=O)(O)O)[C@@H](O)[C@@H]2O)c(=O)n1 [N^4 -Butyryl-5'-PNa]
- response vs control in vivo at 100 mg/kg: 105%
- response vs control in vivo at 200 mg/kg: 102%
- response vs control in vivo at 400 mg/kg: 100%

Structure (SMILES): CCCCCCCCCCCCCCCCCC(=O)Nc1ccn([C@@H]2O[C@H](COP(=O)(O)O)[C@@H](OP(=O)(O)O)[C@@H]2O)c(=O)n1 [N^4-stearoyl-Ara-C-3',5'-(PNa)2]
- response vs control in vivo at 100 mg/kg: 215%
- response vs control in vivo at 200 mg/kg: 138%
- response vs control in vivo at 400 mg/kg: 107%
